Values of other authors as cited in patent US20010027177A1, “Pharmaceutical composition containing a small or medium size peptide” (priority 2000, published 2001).
One block for each compound: values may come before it.

What was measured:
[1] = solutions free from preservative; polystyrene, polypropylene and glass tubes; 24 hours at room temperature
[2] = adsorption to glass bottles and plastic tubing used in giving sets

loss of active principle because of adsorption by the walls [1]: lose about the half of active principle
Compound: NC(=O)CC[C@@H]1NC(=O)[C@H](Cc2ccccc2)NC(=O)[C@H](Cc2ccc(O)cc2)NC(=O)CCSSC[C@@H](C(=O)N2CCC[C@H]2C(=O)N[C@H](CCCN=C(N)N)C(=O)NCC(N)=O)NC(=O)[C@H](CC(N)=O)NC1=O [desmopressin, 1-deamino-8-D-arginin-vasopressin]

Compound: benzalkonium chloride
effect on nasal ciliar motility (nasal ciliar motility): irreversible suppression of the nasal ciliar motility

Compound: insulin: peptide drug cited for adsorption to glass bottles and plastic tubing
losses of activity/potency because of adsorption [2]: ≤ 78.8%
